Source: ChEMBL document CHEMBL3046822, “Synthesis, antiplatelet aggregation activity, and molecular modeling study of novel substituted-piperazine analogues” (2011)
Active and inactive are the calls of the source. The calls are words filed in the database; no cut-off is given here.

Key:
[1] = tested on: Platelet; assay: Antiaggregating activity in Homo sapiens (human) platelet rich plasma assessed as inhibition of collagen-induced platelet aggregation at 1 uM incubated for 4 min prior to collagen-induction measured for 5.5 min by turbidometric analysis; assay type: functional, cell-free
[2] = Antiaggregating activity in Homo sapiens (human) platelet rich plasma assessed as collagen-induced platelet aggregation at 0.1 uM incubated for 4 min prior to collagen-induction measured for 5.5 min by turbidometric analysis (reference value: 50 to 98%); assay type: functional
[3] = tested on: Platelet; assay: Antiaggregating activity in Homo sapiens (human) platelet rich plasma assessed as inhibition of ADP-induced platelet aggregation at 0.5 uM incubated for 4 min prior to ADP-induction measured for 5.5 min by turbidometric analysis; assay type: functional, cell-free
[4] = tested on: Platelet; assay: Antiaggregating activity in Homo sapiens (human) platelet rich plasma assessed as inhibition of adrenaline-induced platelet aggregation at 0.5 uM incubated for 4 min prior to adrenaline-induction measured for 5.5 min by turbidometric analysis; assay type: functional, cell-free
[5] = Antiaggregating activity in Homo sapiens (human) platelet rich plasma assessed as ristocetin-induced platelet aggregation at 1 uM incubated for 4 min prior to ristocetin-induction measured for 5.5 min by turbidometric analysis (reference value: 65 to 99%); assay type: functional
[6] = tested on: Platelet; assay: Antiaggregating activity in Homo sapiens (human) platelet rich plasma assessed as inhibition of arachidonic acid-induced platelet aggregation at 0.25 uM incubated for 4 min prior to arachidonic acid-induction measured for 5.5 min by turbidometric analysis; assay type: functional, cell-free
[7] = tested on: Platelet; assay: Antiaggregating activity in Homo sapiens (human) platelet rich plasma assessed as inhibition of adrenaline-induced platelet aggregation at 0.25 uM incubated for 4 min prior to adrenaline-induction measured for 5.5 min by turbidometric analysis; assay type: functional, cell-free
[8] = tested on: Platelet; assay: Antiaggregating activity in Homo sapiens (human) platelet rich plasma assessed as inhibition of adrenaline-induced platelet aggregation at 1 uM incubated for 4 min prior to adrenaline-induction measured for 5.5 min by turbidometric analysis; assay type: functional, cell-free
[9] = Antiaggregating activity in Homo sapiens (human) platelet rich plasma assessed as ristocetin-induced platelet aggregation at 0.1 uM incubated for 4 min prior to ristocetin-induction measured for 5.5 min by turbidometric analysis (reference value: 65 to 99%); assay type: functional
[10] = tested on: Platelet; assay: Antiaggregating activity in Homo sapiens (human) platelet rich plasma assessed as inhibition of ADP-induced platelet aggregation at 1 uM incubated for 4 min prior to ADP-induction measured for 5.5 min by turbidometric analysis; assay type: functional, cell-free
[11] = Antiaggregating activity in Homo sapiens (human) platelet rich plasma assessed as disaggregation of ristocetin-induced platelet aggregation at 0.25 uM incubated for 4 min prior to ristocetin-induction measured for 5.5 min by turbidometric analysis relative to control; assay type: functional
[12] = tested on: Platelet; assay: Antiaggregating activity in Homo sapiens (human) platelet rich plasma assessed as inhibition of arachidonic acid-induced platelet aggregation at 1 uM incubated for 4 min prior to arachidonic acid-induction measured for 5.5 min by turbidometric analysis; assay type: functional, cell-free
[13] = tested on: Platelet; assay: Antiaggregating activity in Homo sapiens (human) platelet rich plasma assessed as inhibition of arachidonic acid-induced platelet aggregation at 0.1 uM incubated for 4 min prior to arachidonic acid-induction measured for 5.5 min by turbidometric analysis; assay type: functional, cell-free
[14] = tested on: Platelet; assay: Antiaggregating activity in Homo sapiens (human) platelet rich plasma assessed as inhibition of collagen-induced platelet aggregation at 0.25 uM incubated for 4 min prior to collagen-induction measured for 5.5 min by turbidometric analysis; assay type: functional
[15] = Antiaggregating activity in Homo sapiens (human) platelet rich plasma assessed as disaggregation of ADP-induced platelet aggregation at 0.25 uM incubated for 4 min prior to ADP-induction measured for 5.5 min by turbidometric analysis relative to control; assay type: functional
[16] = tested on: Platelet; assay: Antiaggregating activity in Homo sapiens (human) platelet rich plasma assessed as inhibition of arachidonic acid-induced platelet aggregation at 0.5 uM incubated for 4 min prior to arachidonic acid-induction measured for 5.5 min by turbidometric analysis; assay type: functional
[17] = tested on: Platelet; assay: Antiaggregating activity in Homo sapiens (human) platelet rich plasma assessed as inhibition of collagen-induced platelet aggregation at 0.5 uM incubated for 4 min prior to collagen-induction measured for 5.5 min by turbidometric analysis; assay type: functional, cell-free
[18] = tested on: Platelet; assay: Antiaggregating activity in Homo sapiens (human) platelet rich plasma assessed as inhibition of adrenaline-induced platelet aggregation at 0.1 uM incubated for 4 min prior to adrenaline-induction measured for 5.5 min by turbidometric analysis; assay type: functional, cell-free
[19] = Antiaggregating activity in Homo sapiens (human) platelet rich plasma assessed as ADP-induced platelet aggregation at 0.1 uM incubated for 4 min prior to ADP-induction measured for 5.5 min by turbidometric analysis (reference value: 54 to 88%); assay type: functional
[20] = Antiaggregating activity in Homo sapiens (human) platelet rich plasma assessed as disaggregation of ristocetin-induced platelet aggregation at 0.5 uM incubated for 4 min prior to ristocetin-induction measured for 5.5 min by turbidometric analysis relative to control; assay type: functional
[21] = Antiaggregating activity in Homo sapiens (human) platelet rich plasma assessed as ADP-induced platelet aggregation at 0.5 uM incubated for 4 min prior to ADP-induction measured for 5.5 min by turbidometric analysis (reference value: 54 to 88%); assay type: functional
[22] = Antiaggregating activity in Homo sapiens (human) platelet rich plasma assessed as collagen-induced platelet aggregation at 0.25 uM incubated for 4 min prior to collagen-induction measured for 5.5 min by turbidometric analysis (reference value: 50 to 98%); assay type: functional
[23] = Antiaggregating activity in Homo sapiens (human) platelet rich plasma assessed as disaggregation of arachidonic acid-induced platelet aggregation at 0.5 uM incubated for 4 min prior to arachidonic acid-induction measured for 5.5 min by turbidometric analysis relative to control; assay type: functional
[24] = Antiaggregating activity in Homo sapiens (human) platelet rich plasma assessed as ADP-induced platelet aggregation at 0.25 uM incubated for 4 min prior to ADP-induction measured for 5.5 min by turbidometric analysis (reference value: 54 to 88%); assay type: functional
[25] = Antiaggregating activity in Homo sapiens (human) platelet rich plasma assessed as ristocetin-induced platelet aggregation at 0.5 uM incubated for 4 min prior to ristocetin-induction measured for 5.5 min by turbidometric analysis (reference value: 65 to 99%); assay type: functional
[26] = Antiaggregating activity in Homo sapiens (human) platelet rich plasma assessed as ristocetin-induced platelet aggregation at 0.25 uM incubated for 4 min prior to ristocetin-induction measured for 5.5 min by turbidometric analysis (reference value: 65 to 99%); assay type: functional
[27] = Antiaggregating activity in Homo sapiens (human) platelet rich plasma assessed as disaggregation of arachidonic acid-induced platelet aggregation at 0.25 uM incubated for 4 min prior to arachidonic acid-induction measured for 5.5 min by turbidometric analysis relative to control; assay type: functional
[28] = Antiaggregating activity in Homo sapiens (human) platelet rich plasma assessed as arachidonic acid-induced platelet aggregation at 0.1 uM incubated for 4 min prior to arachidonic acid-induction measured for 5.5 min by turbidometric analysis (reference value: 55 to 100%); assay type: functional

Compound | inhibition [1] | Activity [2] [%] | inhibition [4] | Activity [5] [%] | inhibition [7] | inhibition [8] | Activity [9] [%] | inhibition [10] | inhibition [12] | inhibition [17] | inhibition [18] | Activity [19] [%] | other results
Br.O=C(C1CCCN(Cc2ccc([N+](=O)[O-])cc2)C1)N1CCN(c2ccccc2Cl)CC1 (stereo not given) | Active | 58 | Active | 23 | Active | Active | 66 | Active | Active | Active | Active | 57 | inhibition [3]: Active; inhibition [6]: Active; Activity [11]: 58%; inhibition [13]: Active; inhibition [14]: Active; Activity [15]: 28%; inhibition [16]: Active; Activity [20]: 50%
Br.O=C(C1CCCN(Cc2ccc(Br)cc2)C1)N1CCN(c2ccccn2)CC1 (stereo not given) | Active | 67 | Active | 24 | Active | Active | 91 | Active | Active | Active | Active | 76 | Activity [21]: 18%; Activity [22]: 64%; Activity [23]: 28%; Activity [24]: 65%; Activity [25]: 63%; Activity [26]: 81%; Activity [27]: 22%; Activity [28]: 72%
